Source: ChEMBL document CHEMBL1201862, “PubChem BioAssay data set” (2004)
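The compound was tested at five concentrations on cells cultured in 96-well plates, with a 48-hour exposure period. Here, GI50 denotes the concentration required for 50% inhibition of growth.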 The source made the active and inactive calls. No stated cut-off is given here; in the data, active = GI50 up to about 1.1 µM and inactive = higher.

How the values were obtained:
Test in all cases: NCI anticancer screen, dose series, 48 h
RXF 393 = tested on: RXF 393
K562 = tested on: K562
CAKI-1 = tested on: CAKI-1
RPMI-8226 = tested on: RPMI-8226
NCI-H522 = tested on: NCI-H522
SK-MEL-2 = tested on: SK-MEL-2
CCRF-CEM = tested on: CCRF-CEM
MDA-MB-435 = tested on: MDA-MB-435
MDA-MB-231 = tested on: MDA-MB-231
HL-60 = tested on: HL-60
HOP-92 = tested on: HOP-92
UACC-62 = tested on: UACC-62
SR = tested on: SR
SK-MEL-28 = tested on: SK-MEL-28
HCC 2998 = tested on: HCC 2998
MCF7 = tested on: MCF7
SF-295 = tested on: SF-295
SF-539 = tested on: SF-539
NCI-H460 = tested on: NCI-H460

Row | SMILES | GI50 (RXF 393) | GI50 (K562) | GI50 (CAKI-1) | GI50 (RPMI-8226) | GI50 (NCI-H522) | GI50 (SK-MEL-2) | GI50 (CCRF-CEM) | GI50 (MDA-MB-435) | GI50 (MDA-MB-231) | GI50 (HL-60) | GI50 (HOP-92) | GI50 (UACC-62) | GI50 (SR) | GI50 (SK-MEL-28) | GI50 (HCC 2998) | GI50 (MCF7) | GI50 (SF-295) | GI50 (SF-539) | GI50 (NCI-H460)
1 | OC1(c2ccccc2)CC2CCC(C1)N2CCCC(O)(c1ccccc1)c1ccccc1 (configuration not stated) | 11.9 µM (inactive) | 4.99 µM (inactive) | 14 µM (inactive) | 2.28 µM (inactive) | 10.2 µM (inactive) | 20.3 µM (inactive) | 4.33 µM (inactive) | 12 µM (inactive) | 18.9 µM (inactive) | 22.9 µM (inactive) | 5.62 µM (inactive) | 14.3 µM (inactive) | 11.8 µM (inactive) | 17.7 µM (inactive) | 2.14 µM (inactive) | 16.1 µM (inactive) | 3.33 µM (inactive) | 4.54 µM (inactive) | 2.2 µM (inactive)
2 | C=CC(=O)N1C/C(=C\c2ccc(Cl)cc2)C(=O)/C(=C/c2ccc(Cl)cc2)C1 | 0.275 µM (active) | 0.265 µM (active) | 0.343 µM (active) | 0.0263 µM (active) | 0.514 µM (active) | 1.32 µM (inactive) | 0.175 µM (active) | 0.262 µM (active) | 0.255 µM (active) | 0.484 µM (active) | 1.54 µM (inactive) | 0.294 µM (active) | 0.05 µM (active) | 0.442 µM (active) | 0.296 µM (active) | 0.151 µM (active) | 0.288 µM (active) | 0.188 µM (active) | 0.468 µM (active)
3 | COc1cc([C@@H]2c3cc4c(cc3C[C@H]3COC(=O)[C@@H]32)OCO4)cc2c1OCO2 [AUSTROBAILIGNAN 1] | < 0.01 µM (active) |  | < 0.01 µM (active) | < 0.01 µM (active) | < 0.01 µM (active) | < 0.01 µM (active) | 0.664 µM (active) | < 0.01 µM (active) | < 0.01 µM (active) |  | < 0.01 µM (active) | < 0.01 µM (active) | < 0.01 µM (active) | < 0.01 µM (active) | < 0.01 µM (active) | < 0.01 µM (active) | < 0.01 µM (active) | < 0.01 µM (active) | < 0.01 µM (active)
4 | N=C(N)NS(=O)(=O)c1ccc(NNc2c3ccccc3nc3c(C(=O)Nc4ccc(S(=O)(=O)Nc5ncccn5)cc4)cccc23)cc1 | 29 µM (inactive) | 27.2 µM (inactive) | 37.8 µM (inactive) | 33.3 µM (inactive) | 19.3 µM (inactive) | 50.4 µM (inactive) | 30.8 µM (inactive) | 43.2 µM (inactive) | 60.1 µM (inactive) | 38.2 µM (inactive) | 67 µM (inactive) | 21.2 µM (inactive) | > 10 µM (inactive) | 55.1 µM (inactive) | 50.8 µM (inactive) | 31.5 µM (inactive) | 40.2 µM (inactive) | 35.4 µM (inactive) | 45.3 µM (inactive)
5 | CSC1=C(c2ccc(Cl)cc2)SC(N2CCCCC2)N1c1ccc([N+](=O)[O-])cc1 (configuration not stated) | > 100 µM (inactive) | 33 µM (inactive) | 44.8 µM (inactive) | 16.6 µM (inactive) | 24.2 µM (inactive) | 20.5 µM (inactive) | 38.4 µM (inactive) | 31.6 µM (inactive) | 27.1 µM (inactive) | 25.5 µM (inactive) | 26.7 µM (inactive) | 17.5 µM (inactive) | 31.3 µM (inactive) | 38.8 µM (inactive) | 41.9 µM (inactive) | 35.6 µM (inactive) | 24 µM (inactive) | 21.3 µM (inactive) | 23.6 µM (inactive)
6 | CN(C)/C=N\c1cccc2c1NSN2 | > 100 µM (inactive) | > 100 µM (inactive) | > 100 µM (inactive) | > 100 µM (inactive) | > 100 µM (inactive) | > 100 µM (inactive) | > 100 µM (inactive) | > 100 µM (inactive) | > 100 µM (inactive) | > 100 µM (inactive) | > 100 µM (inactive) | > 100 µM (inactive) | > 100 µM (inactive) | > 100 µM (inactive) | > 100 µM (inactive) | > 100 µM (inactive) | > 100 µM (inactive) | > 100 µM (inactive) | > 100 µM (inactive)
7 | CCOC(=O)c1cccc(/N=N/c2nc[nH]c2/C=C/C(=O)OC)c1 | 16.4 µM (inactive) | 4.06 µM (inactive) | 4.97 µM (inactive) | 9.02 µM (inactive) | 9.38 µM (inactive) | 23.7 µM (inactive) | 3.95 µM (inactive) | 37 µM (inactive) | 4.39 µM (inactive) | 3.37 µM (inactive) | 45.1 µM (inactive) | 23.6 µM (inactive) | 2.11 µM (inactive) | 18.1 µM (inactive) | 11 µM (inactive) | 4.18 µM (inactive) | 12.9 µM (inactive) | 7.14 µM (inactive) | 16.5 µM (inactive)
8 | C=C(Cl)C(C)(Cl)CCC(Cl)C(C)(C)Cl (configuration not stated) | 35.1 µM (inactive) | 33.7 µM (inactive) | > 100 µM (inactive) | 20.5 µM (inactive) | 23.1 µM (inactive) | 27.2 µM (inactive) | 30.3 µM (inactive) | 62.2 µM (inactive) | 32.7 µM (inactive) | 36.2 µM (inactive) | 25.9 µM (inactive) |  | 23.8 µM (inactive) | > 100 µM (inactive) | > 100 µM (inactive) | 37.8 µM (inactive) | > 100 µM (inactive) | > 100 µM (inactive) | 78.9 µM (inactive)
9 | COc1ccccc1N(CN1C(=O)CCC1C(=O)O)C(C)=O (configuration not stated) | 74.5 µM (inactive) | > 100 µM (inactive) | > 100 µM (inactive) | > 100 µM (inactive) | > 100 µM (inactive) | > 100 µM (inactive) |  | > 100 µM (inactive) | > 100 µM (inactive) | > 100 µM (inactive) | > 100 µM (inactive) | > 100 µM (inactive) | 72.6 µM (inactive) | > 100 µM (inactive) | > 100 µM (inactive) | > 100 µM (inactive) | > 100 µM (inactive) | > 100 µM (inactive) | > 100 µM (inactive)
10 | CCOC(=O)c1csc(C(CSCc2ccc(OC)cc2)N2C(=O)c3ccccc3C2=O)n1 (configuration not stated) | > 100 µM (inactive) | 33.9 µM (inactive) | > 100 µM (inactive) | 38 µM (inactive) | 23.5 µM (inactive) |  | 35.9 µM (inactive) | 54.8 µM (inactive) | > 100 µM (inactive) | 33.7 µM (inactive) | > 100 µM (inactive) | 63.5 µM (inactive) | 26.5 µM (inactive) | > 100 µM (inactive) | > 100 µM (inactive) | 73.5 µM (inactive) | > 100 µM (inactive) | > 100 µM (inactive) | > 100 µM (inactive)
11 | COc1c2c3c4c(c(OC)c(=O)c5c(O)cc(OC)c(c6c(OC)cc(O)c(c1=O)c63)c54)C(C(C)O)C2C(C)O (configuration not stated) | 0.471 µM (active) | 0.387 µM (active) | 0.53 µM (active) | 0.706 µM (active) | 0.415 µM (active) | 1.23 µM (inactive) | 0.542 µM (active) | 0.67 µM (active) | 1.84 µM (inactive) | 0.392 µM (active) | 0.421 µM (active) | 0.953 µM (active) | 1.31 µM (inactive) | 0.953 µM (active) | 0.431 µM (active) | 1.03 µM (active) | 0.562 µM (active) | 0.796 µM (active) | 0.345 µM (active)
12 | CC[N+]1(C)CCC(O)(c2ccc(C)cc2)C(C(=O)c2ccc(C)cc2)C1 (configuration not stated) | 35.4 µM (inactive) | 19.6 µM (inactive) | 23.9 µM (inactive) | 10.9 µM (inactive) | 23.7 µM (inactive) | > 100 µM (inactive) | 22 µM (inactive) | 69.2 µM (inactive) | 26.7 µM (inactive) | 56.8 µM (inactive) | 23 µM (inactive) | > 100 µM (inactive) | 16.2 µM (inactive) |  | > 100 µM (inactive) | 16.4 µM (inactive) | 37.4 µM (inactive) | 66.8 µM (inactive) | > 100 µM (inactive)
13 | COc1cccc(/C=C\c2ccc(O)cc2)c1 | 19.5 µM (inactive) | 8.77 µM (inactive) | 17.7 µM (inactive) | 22.4 µM (inactive) | 7.06 µM (inactive) | 25.8 µM (inactive) |  | 19.5 µM (inactive) | 30.1 µM (inactive) | 0.151 µM (active) | 18.2 µM (inactive) | 10.2 µM (inactive) | 2.72 µM (inactive) | 40.1 µM (inactive) | 23.8 µM (inactive) | 26.1 µM (inactive) | 28.6 µM (inactive) | 13.7 µM (inactive) | 4.1 µM (inactive)
14 | Cc1ccc2cccc(OC(=O)c3cc4c(cc3Cl)Sc3nccn3S4(=O)=O)c2n1 | 5.16 µM (inactive) | 4.06 µM (inactive) | 26.6 µM (inactive) | 2.33 µM (inactive) | 9.82 µM (inactive) | 11.5 µM (inactive) | 2.5 µM (inactive) | 9.59 µM (inactive) | 14.1 µM (inactive) | < 0.01 µM (active) | 14.6 µM (inactive) | 14.7 µM (inactive) | 3.75 µM (inactive) | 10.2 µM (inactive) | 5.75 µM (inactive) | 5.71 µM (inactive) | 12.9 µM (inactive) | 5.61 µM (inactive) | 3.13 µM (inactive)
15 | O=C(/C=C/c1ccc(O)c(O)c1)NC(CO)C(=O)O (configuration not stated) | > 100 µM (inactive) | > 100 µM (inactive) | > 100 µM (inactive) | > 100 µM (inactive) | > 100 µM (inactive) | > 100 µM (inactive) | > 100 µM (inactive) | > 100 µM (inactive) | > 100 µM (inactive) |  | 3.72 µM (inactive) | > 100 µM (inactive) | > 100 µM (inactive) | > 100 µM (inactive) | > 100 µM (inactive) | > 100 µM (inactive) | > 100 µM (inactive) | > 100 µM (inactive) | > 100 µM (inactive)
